The test system of one data set is mouse. As to conditions: Carcinogenicity; cd1; Oral; Feed; dose end: 78 week; group: systemic; systemic / in life observation / clinical signs / alopecia + systemic / in life observation / mortality / mortality + systemic / pathology ….
The test system of another data set is dog. The conditions noted are these: Chronic toxicity, beagle, Oral, Capsule, dose end: 52 week, group: systemic.
The test system of data set [1] is rat. The conditions noted are these: Multigenerational reproductive toxicity study, other, Oral, Feed, dose end: 2 generation.
Data set [2] concerns rat. As to conditions: Subchronic oral toxicity in rodents, fischer, Feed, dose end: 13 week, group: systemic.
The next data set concerns rabbit. As to conditions: Prenatal developmental toxicity study, new zealand white, Oral, Gavage/Intubation, dose end: 20 GD.
In data set [3] the test system is rat. As to conditions: Subchronic oral toxicity in rodents, wistar, Feed, dose end: 90 day, group: systemic.
The subject of data set [4] is rat. As to conditions: Prenatal developmental toxicity study, wistar, Oral, Gavage/Intubation, dose end: 16 GD.
Setting [5] is: systemic / pathology microscopic / parathyroid gland / cyst + systemic / pathology microscopic / pituitary gland / cyst.
Setting [6] is: group: offspring, systemic / in life observation / body weight / offspring (pup) weight.
The mark [7] stands for this setting: group: reproductive, reproductive / offspring survival early / dead fetuses / dead fetuses.
Where [8] appears, read: systemic / urinalysis / ph / ph.
Where [9] appears, read: group: developmental, developmental / developmental malformation / bone / delayed ossification + developmental / developmental malformation / bone / short ….
[10] abbreviates: group: maternal, systemic / in life observation / body weight / body weight loss + systemic / in life observation / clinical signs / inappetence + systemic….
Where [11] appears, read: systemic / organ weight / heart / absolute + systemic / organ weight / heart / relative to body weight + systemic / clinical chemistry / ….
Setting [12] is: group: developmental, developmental / developmental malformation / bone / delayed ossification + developmental / developmental malformation / bone / unossified + ….
The mark [13] stands for this setting: group: maternal, systemic / in life observation / body weight / body weight gain + systemic / in life observation / food consumption / food consumption.

In general, LOAEL refers to the lowest tested level that showed an adverse finding. For orientation: NOAEL means the highest dose or exposure tested at which no adverse effect was seen.

Molecules are shown by their SMILES.

Take `Cc1ccc(-c2c(Cl)nc(C#N)n2S(=O)(=O)N(C)C)cc1` [Cyazofamid]: the LEL in the data set on mouse was found to be 985 mg/kg/day; in the data set on dog (systemic / pathology microscopic / pituitary gland / cyst), 200 mg/kg/day; in the data set on rat [1] (setting [6]), 1000 mg/kg/day; in the data set on rat [1] (setting [7]) it was 1000 mg/kg/day; with rat [2] (setting [8]), 0.6 mg/kg/day. Further, the LOAEL was 985 mg/kg/day with mouse; 1000 mg/kg/day in the data set with dog (setting [5]); over 1000 mg/kg/day with rat [1] (setting [6]); over 1000 mg/kg/day in the data set on rat [1] (setting [7]); 294 mg/kg/day in the data set on rat [2] (systemic / pathology microscopic / kidney / basophilia + systemic / urinalysis / protein / protein). In addition, the NEL in the data set with mouse is 94.8 mg/kg/day; in the data set with dog (setting [5]), 40 mg/kg/day; with rat [1] (setting [6]), 100 mg/kg/day; in the data set with rat [1] (setting [7]), 100 mg/kg/day; in the data set on rat [2] (setting [8]) it was under 0.6 mg/kg/day. Also, the no-observed-adverse-effect level (NOAEL) with mouse was 94.8 mg/kg/day; in the data set on dog (setting [5]), 200 mg/kg/day; in the data set on rat [1] (setting [6]), at least 1000 mg/kg/day; in the data set on rat [1] (setting [7]), at least 1000 mg/kg/day; with rat [2] (systemic / pathology microscopic / kidney / basophilia + systemic / urinalysis / protein / protein + systemic / urinalysis / ph / ph + …), 29.5 mg/kg/day.

`CCCCOC(=O)[C@@H](C)Oc1ccc(Oc2ccc(C(F)(F)F)cn2)cc1` [Fluazifop-P-butyl]: the LEL with rabbit (setting [9]) amounted to 50 mg/kg/day; in the data set with rabbit (setting [10]), 50 mg/kg/day; with rat [3] (setting [11]) it was 0.5 mg/kg/day; in the data set on rat [4] (setting [12]), 20 mg/kg/day; in the data set on rat [4] (setting [13]), 300 mg/kg/day. The LOAEL in the data set with rabbit (setting [9]) was found to be 50 mg/kg/day; with rabbit (setting [10]) it was 50 mg/kg/day; with rat [3] (systemic / organ weight / spleen / absolute + systemic / organ weight / spleen / relative to body weight + systemic / hematology / …) it was 5 mg/kg/day; in the data set on rat [4] (setting [12]) it was 20 mg/kg/day; in the data set on rat [4] (group: maternal, systemic / in life observation / body weight / body weight gain), 300 mg/kg/day. Further, the NEL is 10 mg/kg/day in the data set on rabbit (setting [9]); 10 mg/kg/day in the data set with rabbit (setting [10]); under 0.5 mg/kg/day in the data set on rat [3] (setting [11]); 1 mg/kg/day in the data set on rat [4] (setting [12]); 20 mg/kg/day with rat [4] (setting [13]). Also, the no-observed-adverse-effect level (NOAEL) in the data set on rabbit (setting [9]) came to 10 mg/kg/day; in the data set on rabbit (setting [10]), 10 mg/kg/day; in the data set on rat [3] (systemic / organ weight / spleen / absolute + systemic / organ weight / spleen / relative to body weight + systemic / organ weight / brain…), 0.5 mg/kg/day; with rat [4] (setting [12]) it was 1 mg/kg/day; in the data set on rat [4] (setting [13]) it was 20 mg/kg/day.

These data come from EPA's ToxRefDB 2.
